Data as given in PubChem BioAssay AID248 (DTP/NCI, 2004).
Where “and” joins values, the source holds several entries; their conditions need not be identical. Identical values can stand only once. Toxic doses and inconclusive results are not listed. Cut-off read from the data, not from the text of the source: active = T/C of 150% or more; inactive = T/C below 125%.

Test system: L1210 leukemia ip in BDF1 mice, survival T/C
Assay: NCI In Vivo Anticancer Drug Screen. Data for tumor model L1210 Leukemia (intraperitoneal) in B6D2F1 (BDF1) mice
Conditions: endpoint: mean survival time, higher = longer survival
Outline: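 Tumor was transplanted into mice, which were then dosed with test compound or vehicle alone. Survival was recorded for each group, and the treated figure was expressed relative to the control figure.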

[1] = dose: 50.0 mg/kg/injection, schedule: Q01DX001 (ip), vehicle: saline
[2] = dose: 100.0 mg/kg/injection, schedule: Q01DX001 (ip), vehicle: saline
[3] = dose: 200.0 mg/kg/injection, schedule: Q01DX001 (ip), vehicle: saline
[4] = dose: 100.0 mg/kg/injection, schedule: Q04DX002 (ip), vehicle: saline with Tween-80
[5] = dose: 200.0 mg/kg/injection, schedule: Q04DX002 (ip), vehicle: saline with Tween-80
[6] = dose: 100.0 mg/kg/injection, schedule: Q04DX003 (ip), vehicle: Klucel (hydroxypropylcellulose) (HPC)
[7] = dose: 200.0 mg/kg/injection, schedule: Q04DX003 (ip), vehicle: Klucel (hydroxypropylcellulose) (HPC)
[8] = dose: 400.0 mg/kg/injection, schedule: Q04DX003 (ip), vehicle: Klucel (hydroxypropylcellulose) (HPC)
[9] = dose: 100.0 mg/kg/injection, schedule: Q01DX009 (ip), vehicle: Klucel (hydroxypropylcellulose) (HPC)
[10] = dose: 200.0 mg/kg/injection, schedule: Q01DX009 (ip), vehicle: Klucel (hydroxypropylcellulose) (HPC)
[11] = dose: 100.0 mg/kg/injection, schedule: Q04DX002 (ip), vehicle: saline
[12] = dose: 100.0 mg/kg/injection, schedule: Q04DX003 (ip), vehicle: saline
[13] = dose: 200.0 mg/kg/injection, schedule: Q04DX002 (ip), vehicle: saline
[14] = dose: 200.0 mg/kg/injection, schedule: Q04DX003 (ip), vehicle: saline
[15] = dose: 400.0 mg/kg/injection, schedule: Q01DX001 (ip), vehicle: saline
[16] = dose: 400.0 mg/kg/injection, schedule: Q04DX002 (ip), vehicle: saline
[17] = dose: 400.0 mg/kg/injection, schedule: Q04DX003 (ip), vehicle: saline

Measured: T/C

CC12CCC3c4ccc(OC(=O)Cc5ccc(N(CCCl)CCCl)cc5)cc4CCC3C1CCC2=O (stereo not drawn)
inactive: dose: 100.0 mg/kg/injection, schedule: Q01DX001 (sc), vehicle: steriod suspending solution 97 % of control | dose: 200.0 mg/kg/injection, schedule: Q01DX001 (sc), vehicle: steriod suspending solution 103 % of control | dose: 400.0 mg/kg/injection, schedule: Q01DX001 (sc), vehicle: steriod suspending solution 103 % of control

[O-]/[N+](=C\c1ccccc1)c1ccccc1
inactive: [1] 110 % of control | [2] 110 % of control | [3] 108 % of control

S=P(c1ccccc1)(N1CC1)N1CC1
inactive: dose: 25.0 mg/kg/injection, schedule: Q04DX002 (ip), vehicle: saline with Tween-80 110 % of control | dose: 50.0 mg/kg/injection, schedule: Q01DX Z (ip), vehicle: saline 124 % of control | dose: 50.0 mg/kg/injection, schedule: Q04DX002 (ip), vehicle: saline with Tween-80 103 % of control | dose: 100.0 mg/kg/injection, schedule: Q01DX Z (ip), vehicle: saline 115 % of control | [4] 115 % of control and 116 % of control | [5] 92 % of control

Cc1ccc(S(=O)(=O)N(C)c2ccc3cc(Br)ccc3c2)cc1
inactive: dose: 100.0 mg/kg/injection, schedule: Q01DX005 (ip), vehicle: Klucel (hydroxypropylcellulose) (HPC) 94 % of control | [6] 95 % of control | dose: 200.0 mg/kg/injection, schedule: Q01DX005 (ip), vehicle: Klucel (hydroxypropylcellulose) (HPC) 100 % of control | [7] 97 % of control | dose: 400.0 mg/kg/injection, schedule: Q01DX005 (ip), vehicle: Klucel (hydroxypropylcellulose) (HPC) 91 % of control | [8] 97 % of control

O=C(CCC(C(=O)c1ccccc1)c1ccccc1)c1ccccc1 (stereo not drawn)
inactive: dose: 100.0 mg/kg/injection, schedule: Q01DX009 (ip), vehicle: saline with Tween-80 104 % of control | dose: 200.0 mg/kg/injection, schedule: Q01DX009 (ip), vehicle: saline with Tween-80 87 % of control | dose: 400.0 mg/kg/injection, schedule: Q01DX009 (ip), vehicle: saline with Tween-80 88 % of control

c1cc[c]([Pb]([S]c2ncnc3c2nc[n]3[Pb]([c]2ccccc2)([c]2ccccc2)[c]2ccccc2)([c]2ccccc2)[c]2ccccc2)cc1.c1cc[c]([Pb]([S]c2ncnc3nc[nH]c23)([c]2ccccc2)[c]2ccccc2)cc1
inactive: dose: 5.0 mg/kg/injection, schedule: Q01DX001 (ip), vehicle: other 103 % of control | dose: 10.0 mg/kg/injection, schedule: Q01DX001 (ip), vehicle: other 121 % of control

CNc1nc2nc[nH]c2c(=S)n1C
inactive: [2] 103 % of control | [3] 100 % of control

CCN(Cc1ccccc1)C(=O)Nc1cccc(Cl)c1
inactive: dose: 100.0 mg/kg/injection, schedule: Q01DX009 (ip), vehicle: other 106 % of control | dose: 200.0 mg/kg/injection, schedule: Q01DX009 (ip), vehicle: other 108 % of control | dose: 400.0 mg/kg/injection, schedule: Q01DX009 (ip), vehicle: other 105 % of control

CN(C)c1ccc([N+](=O)[O-])cn1
inactive: [4] 97 % of control | [5] 97 % of control

CCOC(=O)CC(=O)c1ccc(OCCOc2ccc(C(C)(C)CC(C)(C)C)cc2)cc1
inactive: [9] 95 % of control | [6] 89 % of control | [10] 97 % of control | [7] 96 % of control | dose: 400.0 mg/kg/injection, schedule: Q01DX009 (ip), vehicle: Klucel (hydroxypropylcellulose) (HPC) 87 % of control | [8] 86 % of control

Cn1cccc(C#N)c1=O (tested in a mixture with another compound)
inactive: [2] 103 % of control and 113 % of control | [11] 97 % of control and 110 % of control | [12] 97 % of control | [3] 106 % of control and 108 % of control | [13] 98 % of control and 113 % of control | [14] 103 % of control and 106 % of control | [15] 103 % of control and 105 % of control | [16] 100 % of control and 92 % of control | [17] 106 % of control and 91 % of control

CC(C)CCNCC(C)OC(=O)c1ccc([N+](=O)[O-])cc1 (stereo not drawn)
inactive: dose: 75.0 mg/kg/injection, schedule: Q01DX001 (ip), vehicle: other 98 % of control | dose: 150.0 mg/kg/injection, schedule: Q01DX001 (ip), vehicle: other 106 % of control | dose: 300.0 mg/kg/injection, schedule: Q01DX001 (ip), vehicle: other 95 % of control

O=[N+]([O-])c1ccc(NC(CO)C(O)C(O)C(O)CO)c([N+](=O)[O-])c1 (stereo not drawn)
inactive: [2] 102 % of control | [3] 98 % of control | [15] 98 % of control

CCOc1c(CNC(=O)CCl)cc(N)cc1CNC(=O)CCl
inactive: [1] 106 % of control | [2] 111 % of control

CN(Cc1ccccc1)c1ccccc1
inactive: [1] 97 % of control | [2] 97 % of control | [3] 97 % of control | [15] 97 % of control

O=c1oc2ccc(Cl)cc2c2c1OC(c1ccccc1)CN2 (stereo not drawn)
inactive: dose: 100.0 mg/kg/injection, schedule: Q01DX001 (ip), vehicle: Klucel (hydroxypropylcellulose) (HPC) 96 % of control | dose: 200.0 mg/kg/injection, schedule: Q01DX001 (ip), vehicle: Klucel (hydroxypropylcellulose) (HPC) 90 % of control | dose: 400.0 mg/kg/injection, schedule: Q01DX001 (ip), vehicle: Klucel (hydroxypropylcellulose) (HPC) 91 % of control

CCSCC(C)O (stereo not drawn)
inactive: [4] 100 % of control | [5] 100 % of control | dose: 400.0 mg/kg/injection, schedule: Q04DX002 (ip), vehicle: saline with Tween-80 94 % of control

CC(C)=CCN(CC=C(C)C)CCC(C#N)c1cccc2ccccc12 (stereo not drawn)
inactive: dose: 50.0 mg/kg/injection, schedule: Q01DX009 (ip), vehicle: Klucel (hydroxypropylcellulose) (HPC) 100 % of control | [9] 88 % of control | [6] 109 % of control | [10] 88 % of control | [7] 90 % of control | [8] 93 % of control

CCCCCOC(=O)Nc1cccc2ccccc12
inactive: dose: 100.0 mg/kg/injection, schedule: Q04DX002 (ip), vehicle: Klucel (hydroxypropylcellulose) (HPC) 94 % of control | dose: 200.0 mg/kg/injection, schedule: Q04DX002 (ip), vehicle: Klucel (hydroxypropylcellulose) (HPC) 94 % of control | dose: 400.0 mg/kg/injection, schedule: Q04DX002 (ip), vehicle: Klucel (hydroxypropylcellulose) (HPC) 98 % of control

O=C1c2ccccc2Cc2cscc21
inactive: dose: 100.0 mg/kg/injection, schedule: Q04DX003 (ip), vehicle: saline with Tween-80 91 % of control | dose: 200.0 mg/kg/injection, schedule: Q04DX003 (ip), vehicle: saline with Tween-80 91 % of control

Brc1ccc2[nH]c3c(c2c1)CSCC3
inactive: dose: 100.0 mg/kg/injection, schedule: Q01DX001 (ip), vehicle: saline with Tween-80 95 % of control | dose: 200.0 mg/kg/injection, schedule: Q01DX001 (ip), vehicle: saline with Tween-80 111 % of control | dose: 400.0 mg/kg/injection, schedule: Q01DX001 (ip), vehicle: saline with Tween-80 108 % of control

Cc1ccc(O)c(CCCC(=O)O)c1
inactive: dose: 100.0 mg/kg/injection, schedule: Q01DX009 (ip), vehicle: alcohol 100 % of control | dose: 200.0 mg/kg/injection, schedule: Q01DX009 (ip), vehicle: alcohol 101 % of control | dose: 400.0 mg/kg/injection, schedule: Q01DX009 (ip), vehicle: alcohol 98 % of control

CC(=O)Oc1cccc2ccc(/C=C/c3cccc[n+]3C)nc12
inactive: dose: 4.0 mg/kg/injection, schedule: Q01DX015 (ip), vehicle: carboxymethylcellulose (CMC) 95 % of control | dose: 8.0 mg/kg/injection, schedule: Q01DX015 (ip), vehicle: carboxymethylcellulose (CMC) 107 % of control | dose: 16.0 mg/kg/injection, schedule: Q01DX015 (ip), vehicle: carboxymethylcellulose (CMC) 97 % of control | dose: 32.0 mg/kg/injection, schedule: Q01DX015 (ip), vehicle: carboxymethylcellulose (CMC) 102 % of control

O=C1NCCN1
inactive: dose: 100.0 mg/kg/injection, schedule: Q01DX009 (ip), vehicle: saline 101 % of control | [11] 103 % of control | [12] 104 % of control | dose: 200.0 mg/kg/injection, schedule: Q01DX009 (ip), vehicle: saline 106 % of control | [13] 107 % of control | [14] 101 % of control | dose: 400.0 mg/kg/injection, schedule: Q01DX009 (ip), vehicle: saline 106 % of control | [16] 107 % of control | [17] 95 % of control
